Source: US6090829A, “Method for treating excessive aggression” (Eli Lilly and Company, priority 1998, dated 2000)

Columns and labels:
m4 receptors = assay: cAMP formation in CHO m4 cells treated with pertussis toxin; type: cell-based
Description: Muscarinic agonists stimulate the formation of cAMP up to 10 fold in CHO m4 cells treated with pertussisi toxin and the pharmacology is consistent with the mediation by m4 receptors. Eckols K. Soc. Neurosci Abstr., 21:2040 (1995).

D2 receptor subtype = assay: pharmacological studies at the D2 receptor subtype
[1] = molecular target: 3H-oxotremorine-M binding (muscarinic receptors); assay: 3H-oxotremorine-M binding inhibition; conditions: radioligand 3H-oxotremorine-M; read-out: inhibition constant (Ki) for binding of 3H-oxotremorine-M

CCCCCCOc1nsnc1C1=CCCN(C)C1 [xanomeline, 3-(4-hexyloxy-1,2,5-thiadiazol-3-yl)-1,2,5,6-tetrahydro-1-methylpyridine]
stimulation of the formation of cAMP (m4 receptors): efficaciously and potently stimulated the formation of cAMP | activity at the D2 receptor subtype (D2 receptor subtype): active | Ki [1]: 2 nM
